Data from PubChem BioAssay AID624167 (Sanford-Burnham Center for Chemical Genomics, 2012).
pIC50: −log10 of the molar value. Calls of active or inactive are those of the source.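 Rule for the calls: active = mean IC50 for reducing PEG3 promoter reporter signal at or below a set limit, with IC50 above the limit in both counter screens; inactive = the rest, including counter screen hits.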

Legend:
[1] = biological target: PEG-3 (UniProt Q6IN02); assay: inhibition of PEG-3 promoter-driven reporter – cell-based, HeLa, luciferase, CREF/GAPDH counter-screen panel, dose response (AID 624167); details: HeLa PEG-Prom luciferase reporter, overnight, CREF/GAPDH counter-screens, mean of runs
Sequence of PEG-3 (UniProt Q6IN02) (Q6IN02 whole entry, looked up): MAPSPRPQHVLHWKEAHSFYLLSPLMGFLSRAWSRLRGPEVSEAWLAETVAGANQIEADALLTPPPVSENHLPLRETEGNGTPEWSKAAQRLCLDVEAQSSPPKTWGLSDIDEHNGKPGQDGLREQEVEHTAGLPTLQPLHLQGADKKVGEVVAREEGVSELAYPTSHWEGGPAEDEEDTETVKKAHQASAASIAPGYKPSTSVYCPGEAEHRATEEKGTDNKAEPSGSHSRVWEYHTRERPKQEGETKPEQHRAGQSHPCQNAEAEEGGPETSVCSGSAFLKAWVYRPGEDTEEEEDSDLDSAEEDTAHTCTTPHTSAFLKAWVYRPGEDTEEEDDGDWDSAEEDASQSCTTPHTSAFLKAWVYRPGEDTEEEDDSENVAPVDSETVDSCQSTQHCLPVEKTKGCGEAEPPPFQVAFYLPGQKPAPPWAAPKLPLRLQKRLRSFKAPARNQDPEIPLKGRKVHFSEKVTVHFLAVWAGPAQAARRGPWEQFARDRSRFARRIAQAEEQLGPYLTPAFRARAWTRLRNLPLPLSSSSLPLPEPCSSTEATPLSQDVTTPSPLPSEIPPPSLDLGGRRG

[2] = test system: Rat fibroblasts (CREF); assay: as above; details: CREF/GAPDH counter-screens
[3] = as above; details: CREF/GAPDH counter-screens; GAPDH; mean of runs
[4] = test system: GAPDH; assay: as above; details: CREF/GAPDH counter-screens
[5] = test system: PEG-3; assay: as above; details: HeLa PEG-Prom luciferase reporter, overnight, CREF/GAPDH counter-screens
[6] = run 1, dose range 1, individual replicate IC50 per panel
[7] = run 2, dose range 1, individual replicate IC50 per panel

Row | pIC50 [1] | pIC50 [3] | IC50 [1] | IC50 [3] | Compound | pIC50 ([2]; mean of runs) | pIC50 [2, 6] | pIC50 [2, 7] | pIC50 [4, 6] | pIC50 [4, 7] | pIC50 [5, 6] | pIC50 [5, 7] | IC50 ([2]; mean of runs)
1 | 5.13 | 4.54 |  |  | CS(=O)(=O)c1ccc(-c2sc3ccccc3c2C#CCCO)cc1 | 4.49 | 4.56 | 4.43 | 4.52 | 4.56 | 4.85 | 6.24 | 
2 | 5.57 | 4.85 |  |  | NS(=O)(=O)c1ccc(CCNc2nn3c(-c4ccc(F)c(Cl)c4)cnc3s2)cc1 |  | < 4.00 | < 4.00 | 4.89 | 4.81 | 5.54 | 5.61 | > 100 µM (inactive)
3 | 5.15 |  |  | > 100 µM (inactive) | C=CCc1cccc(/C=N/NC(=O)C(C)Nc2cccc(C)c2)c1O (stereo not given) |  | < 4.00 | < 4.00 | < 4.00 | < 4.00 | 4.91 | 5.72 | > 100 µM (inactive)
4 |  |  | inactive | inactive | CCC(=O)NC(c1ccc(C)cc1)c1ccc2cccnc2c1O (stereo not given) |  | < 4.00 | < 4.00 | 4.33 | < 4.00 | 5.88 | < 4.00 | > 100 µM (inactive)
5 | 5.69 |  |  | > 100 µM (inactive) | CCN(CC)S(=O)(=O)c1cccc(C(=O)N/N=C(\C)c2ccc(O)cc2O)c1 |  | < 4.00 | 4.32 | < 4.00 | < 4.00 | 5.56 | 5.88 | 74.1 µM (inactive)
6 | 5.76 |  |  | inactive | CCCC(=O)NC(c1ccc(OC)cc1)c1ccc2cccnc2c1O (stereo not given) |  | < 4.00 | 5.83 | 4.24 | 4.15 | 5.56 | 6.14 | 50.7 µM (inactive)
7 | 5.43 | 4.69 |  |  | CN1CCC2(CC1)N=C(c1ccc(F)cc1)C(=S)N2C(=O)c1ccc(C(C)(C)C)cc1 | 4.44 | 4.54 | 4.35 | 4.69 | 4.69 | 5.19 | 5.99 | 
8 | 5.10 |  |  | > 100 µM (inactive) | Cc1cccc(OCC(=O)NCC(=O)N/N=C/c2cc(Br)cc(Br)c2O)c1 | 4.33 | 4.37 | 4.28 | < 4.00 | < 4.00 | 5.00 | 5.23 | 
9 | 5.13 |  |  | inactive | CS(=O)(=O)Nc1cccc(NC(=O)C2Cc3c(-c4ccccc4)ccnc3O2)c1 (stereo not given) |  | < 4.00 | < 4.00 | < 4.00 | 4.06 | 5.14 | 5.12 | > 100 µM (inactive)
10 | 5.51 |  |  | > 100 µM (inactive) | COc1cccc(OC)c1C(=O)Nc1cc(C)nn1-c1nc2ccccc2[nH]1 |  | < 4.00 | < 4.00 | < 4.00 | < 4.00 | 5.68 | 5.38 | > 100 µM (inactive)
11 | 5.27 |  |  | > 100 µM (inactive) | COc1ccc(C(NC(C)=O)c2ccc3cccnc3c2O)c(OC)c1 (stereo not given) |  | 5.45 | < 4.00 | < 4.00 | < 4.00 | 5.43 | 5.16 | 51.8 µM (inactive)
12 | 5.13 | 4.81 |  |  | CCCCCCCNC(=O)C1(CC2CC(c3cccc(Br)c3)=NO2)CCNCC1 (stereo not given) | 4.78 | 4.79 | 4.77 | 4.87 | 4.76 | 5.09 | 5.17 | 
13 | 6.30 |  |  | inactive | OCCCNc1nccc(-c2cc(Nc3cccc(Cl)c3)ncn2)n1 |  | 4.72 | < 4.00 | < 4.00 | 6.04 | 6.18 | 6.48 | 59.6 µM (inactive)
14 | 5.41 |  |  | inactive | Cc1ccc(NC(=S)NC(=O)c2ccc(F)cc2)cc1S(=O)(=O)Nc1ccccc1Cl |  | < 4.00 | 5.87 | 4.35 | 4.39 | 5.38 | 5.45 | 50.7 µM (inactive)
15 | 5.35 |  |  | inactive | COc1cc(OC)c2cc(C(=O)N/N=C/c3ccccc3O)[nH]c2c1 | 4.54 | 4.61 | 4.48 | 4.12 | 4.29 | 5.31 | 5.41 | 
16 | 5.09 | 4.64 |  |  | O=C(N/N=C/c1ccc(Cl)c([N+](=O)[O-])c1)c1cc(-c2ccc3c4c(cccc24)CC3)n[nH]1 |  | < 4.00 | < 4.00 | 4.64 | 4.63 | 4.95 | 5.29 | > 100 µM (inactive)

Continued, compound first:

Row | Compound | pIC50 [1] | pIC50 [3] | IC50 [1] | IC50 [3] | pIC50 ([2]; mean of runs) | pIC50 [2, 6] | pIC50 [2, 7] | pIC50 [4, 6] | pIC50 [4, 7] | pIC50 [5, 6] | pIC50 [5, 7] | IC50 ([2]; mean of runs)
17 | COc1cc(/C=C2\SC(=Nc3ccccc3OC)NC2=O)ccc1O |  |  | inactive | > 100 µM (inactive) |  | < 4.00 | < 4.00 | < 4.00 | < 4.00 | 5.33 | < 4.00 | > 100 µM (inactive)
18 | O=C1C=CC(=O)N1c1ccc(-c2nc3ccccc3o2)cc1 | 5.01 |  |  | inactive | 4.89 | 5.26 | 4.70 | 4.38 | 4.45 | 4.95 | 5.10 | 
19 | O=c1cnnc(N/N=C/c2ccccn2)[nH]1 | 5.68 |  |  | > 100 µM (inactive) |  | < 4.00 | 4.47 | < 4.00 | < 4.00 | 5.77 | 5.61 | 67.1 µM (inactive)
20 | COc1ccccc1Nc1nc(-c2sc(NC(=O)c3ccco3)nc2C)cs1 |  |  | inactive | > 100 µM (inactive) |  | < 4.00 | < 4.00 | < 4.00 | < 4.00 | 5.13 | < 4.00 | > 100 µM (inactive)
21 | Cc1ccc(OCC(=O)c2cc(C)n(-c3ccccc3)c2C)c([N+](=O)[O-])n1 |  | 5.26 | inactive |  |  | < 4.00 | < 4.00 | 5.58 | 5.08 | 6.16 | < 4.00 | > 100 µM (inactive)
22 | COc1ccc(-n2c(O)c(/C=N/Nc3nc(C)cc(C)n3)c3ccccc3c2=O)cc1OC | 5.30 |  |  | > 100 µM (inactive) |  | 4.35 | 4.24 | < 4.00 | < 4.00 | 5.57 | 5.14 | 50.9 µM (inactive)
23 | COC(=O)C1C=CC(OC2OC(COC(C)=O)C(OC(C)=O)C(OC(C)=O)C2OC(C)=O)n2c(=O)n(-c3ccccc3)c(=O)n21 (stereo not given) | 5.04 | 4.73 |  |  | 5.09 | 5.17 | 5.03 | 4.71 | 4.75 | 4.99 | 5.09 | 
24 | COc1ccc(NC(=O)c2cc(-c3ccccn3)nc3ccccc23)cc1S(=O)(=O)N(C)C | 6.14 |  |  | inactive |  | < 4.00 | < 4.00 | < 4.00 | 4.36 | 5.95 | 6.48 | > 100 µM (inactive)
25 | O=[N+]([O-])c1ccc(S(=O)(=O)c2ccccc2)nc1 | 5.05 |  |  | inactive |  | 5.05 | < 4.00 | 4.47 | 4.54 | 5.02 | 5.07 | 54.4 µM (inactive)
26 | CN1OC[C@@H]2CN(S(=O)(=O)c3cccc(C(F)(F)F)c3)[C@H](c3ccc(-c4cc5ccccc5o4)cc3)C[C@@H]21 | 5.00 |  |  | inactive |  | < 4.00 | < 4.00 | 4.35 | 4.42 | 4.73 | 5.97 | > 100 µM (inactive)
27 | COC1CC(C)C(OC)c2cc(O)cc(c2O)NC(=O)C(C)=CC=CC(C)C(OC(N)=O)C(C)=CC(C)C1OC (stereo not given) | 4.86 |  |  | inactive |  | < 4.00 | < 4.00 | 4.35 | 4.34 | 4.65 | 5.27 | > 100 µM (inactive)
28 | O=C(Nc1ccccc1C(=O)Nc1nnc(C(F)(F)F)s1)c1ccccc1 |  | 5.10 | inactive |  |  | < 4.00 | < 4.00 | 5.64 | 4.86 | 5.15 | < 4.00 | > 100 µM (inactive)
29 | NC(C(=O)O)C1ON=C(Cl)C1O (stereo not given) | 6.15 | 5.54 |  |  |  | < 4.00 | < 4.00 | 6.03 | 5.32 | 6.19 | 6.12 | > 100 µM (inactive)
30 | COc1cccc2c1C(=O)c1c(O)c3c(c(O)c1C2=O)CC(O)(C(C)=NNC(=O)c1ccc(Cl)c(Cl)c1)CC3OC1CC(N)C(O)C(C)O1 (stereo not given) | 6.02 | 5.15 |  |  | 6.23 | 6.14 | 6.34 | 5.47 | 4.96 | 5.84 | 6.32 | 
